Experiment: NBPT comparative solubility in solvents
Assay type: physicochemical
Conditions: room temperature; for maximum weight percentage of NBPT dissolved in the solvent: vials with 20, 30, 40 and 50 wt. % NBPT
Protocol: The solubility of the N-(n-butyl) thiophosphoric triamide (NBPT) was determined for thirteen solvents. Three of the solvents were caprolactam-derived solvents in accordance with compositions of this disclosure. The remaining ten were comparative solvents. The NBPT was 98% (HPLC) obtained from AK Scientific, Inc., Union City, California. The N-methyl-2-pyrrolidone was at least 99% pure and obtained from Sigma Aldrich of St. Louis, Missouri. The N-butyl-2-pyrrolidone was at least 98% pure and obtained from TCI America of Portland, Oregon. The methyl-5-(dimethylamino)-2-methyl-5-oxopentanoate/propylene glycol was 70-90% pure and obtained from Solvay S. A. of Princeton, N.J.
The solubility of NBPT was evaluated for each solvent by preparing four, 2 ml vials containing 20 wt. %, 30 wt. %, 40 wt. % and 50 wt. % of NBPT. To prepare the 20 wt. % vial, 0.040 g of NBPT was added to 0.160 ml of solvent. To prepare the 30 wt. % vial, 0.060 g of NBPT was added to 0.140 ml of solvent. To prepare the 40 wt. % vial, […] of NBPT was added to 0.120 ml of solvent. To prepare the 50 wt. % vial, 0.100 g of NBPT was added to 0.100 ml of solvent. The vials were capped and swirled at room temperature until no change in solubility was observed.
Solvents 1-3 are in accordance with compositions of the present disclosure. Solvents 4-13 are comparative solvents.

Compound | maximum weight percentage of NBPT dissolved in the solvent [%] | NBPT dissolving performance compared with NMP
CCCC(=O)OC1CCCCC1 [cyclohexyl butyrate] | <20 | –
CCN1CCCCCC1=O [N-ethylcaprolactam] | 50 | performed as well as NMP
CC(=O)OC1CCCCC1 [cyclohexyl acetate] | <20 | –
CN1CCCC1=O [N-methyl-2-pyrrolidone] | 50 | –
CCCCCCCCCC(=O)N(C)C [N,N-dimethyldecanamide] | 20 | –
COC1CCCCC1 [cyclohexyl methyl ether] | <20 | –
CN1CCCCCC1=O [N-methylcaprolactam] | 50 | performed as well as NMP
CCCCN1CCCC1=O [N-butyl-2-pyrrolidone] | 50 | –
COC(=O)CCCCC(=O)N(C)C [N,N-dimethyladipamide methyl ester] | 40 | –
CCCCN1CCCCCC1=O [N-butylcaprolactam] | 40 | performed nearly as well as NMP
COC(=O)C(C)CCC(=O)N(C)C (stereo not shown) [methyl-5-(dimethylamino)-2-methyl-5-oxopentanoate] | 30 | –
O=C1CCCCC1 [cyclohexanone] | 40 | –
N#CCCN1CCCCCC1=O [N-(2-cyanoethyl)caprolactam] | <20 | –
